Test results reported in patent US20180318383A1, “PEPTIDE HAVING NEURONAL LOSS PREVENTION AND REGENERATION EFFECTS, AND COMPOSITION CONTAINING SAME” (GEMVAX & KAEL CO., LTD., priority 2015, published 2018).

Experiments:
NSCs [1] = test: Proteomics and antibody microarray of NSCs; type: cell-based, rat; conditions: 20 μM Aβ25-35 + 10 μM PEP1, 48 hours, antibody microarray
Protocol: The cultured NSCs were washed with cold PBS twice, and disrupted in a sample lysis buffer using a sonicator for 10 seconds. In addition, the cells were disrupted again for a further 1 hour at room temperature. After centrifugation at 15° C. and 15000 g for 1 hour, a non-water-soluble sample was eliminated, and only water-soluble samples were subjected to two-dimensional electrophoresis. A protein concentration was quantified by a Bradford method.
200 μg of a protein sample was loaded on an Immobiline DryStrip gel. […] was performed at 20° C. For electron focusing, a voltage was increased from 150 volts to 3500 volts over 3 hours to allow the sample to enter the gel. Before entering two-dimensionally, the sample was cultured in an equilibration buffer for 10 minutes. […]
For quantitative analysis, images were analyzed with a PDQuest system. […]
To identify a protein through peptide mass fingerprinting, a protein spot was cleaved into smaller peptides using trypsin, well mixed with a-cyano-4-hydroxycinnamic acid in 50% acetonitrile/0.1% TFA, and then analyzed with MALDI-TOF. […]
For antibody microarray analysis, a panorama antibody cell signaling kit was used. […] Array slides were read using a scanner, and results from the obtained scans were analyzed using an analysis program.

NeuN = NeuN expression in 3XTg-AD mice (western blotting); type: in vivo; conditions: hippocampus and whole brain; s.c. three times a week for two months from age 12 months; vs control and Donepezil, same amount
Protocol: To test the efficacy of PEP1 on AD, AD transgenic mice (3XTg-AD) were purchased from Jackson Laboratory. Genetic characteristics of the transgenic mice are as follows: B6; 129-Psen1tm1Mpm Tg(APPSwe, tauP301L)1Lfa/Mmjax. […] One week after mice were confirmed as pregnant, new mice were delivered and weaned for 3 weeks. Two weeks later, mature mice were obtained.
During the preliminary breeding and the entire period of the experiment, a temperature was maintained at 23±2° C. and a relative humidity was maintained at 60±10%, and then the mice were raised under a 12-hour dark/light cycle. Experimental animals were divided into five groups, and each group included 10 animals. The divided experimental groups are as follows. […]
The PEP1, physiological saline, donepezil and scramble peptide were subcutaneously injected at each concentration three times a week for two months from the age of 12 months, and then two months after the injection, cognitive/memory behavior tests (passive avoidance test and Y maze test) were performed to examine a degree of improvement in cognitive function and memory function. After the brain was extracted to separate the hippocampus, the amounts of amyloid beta in the hippocampus and the whole brain, and the amounts of an amyloid beta oligomer and NFT generated by tau hyperphosphorylation were determined by western blotting and immunostaining. […]

NSCs [2] = test: Western blotting and immunostaining of intracellular proteins in NSCs; type: cell-based, rat
Text: For western blotting, the following antibodies were used: Ki67 (1:200 Abcam), P85a (1:1000, Millipore), pAKT (ser 473, 1:500, Cell Signaling Technology), GSK-3b (ser 9, 1:1000. Santa Cruz Biotechnology), HSTF-1 (1:1000, Santa Cruz Biotechnology), anti-B cell lymphoma-2 (1:1000, Cell Signaling Technology), HMGB-1 (1:500, Cell Signaling Technology), Bax (1:1000, Cell Signaling Technology), Cytosolic cytochrome C (1:200, Cell Signaling Technology), Cleaved caspase 3 (Asp175, 1: 1000, Cell Signaling Technology), c-Myc (1: 1000, Cell Signaling Technology), GFP (1: 1000, Cell Signaling Technology), hTERT (1:500, Santa Cruz Biotechnology), and rTERT (1:500, Santa Cruz Biotechnology).
To confirm an intracellular signaling system, western blotting was performed after 48-hour treatment.
To obtain the mitochondria and a cytoplasmic protein, mitochondria/intracellular protein isolation kits were used (Abcam). All blots were observed using an ECL solution, and observed images were analyzed using an analysis program.
Immunostaining was carried out to confirm intracellular expression and locations. For immunostaining, the following antibodies were used: Ki67 (1:100 Abcam), rabbit anti-doublecortin (1 mg/mL; Abcam), rabbit anti-glial fibrillary acidic protein (GFAP) (1:5000; Abcam), rabbit anti-Tuj1 (1 mg/mL; Abcam), mouse anti-GalC (1 mg/mL; Millipore), and rabbit anti-HMGB1 (1:100; Cell Signaling Technology).
Data was observed using an Olympus fluorescence microscope, and suitable fluorescence was used.

EARPALLTSRLRFIPK (homo sapiens) [PEP1, hTERT-derived peptide consisting of 16 amino acids, telomerase location [611-626]]
phosphorylated proteins associated with proliferation (NSCs [1]): recovered
NeuN (NeuN): increased
apoptosis-associated proteins: Bax, cytoplasmic cytochrome C, cleaved caspase-3 (NSCs [2]; 20 μM Aβ25-35 + PEP1, 48 hours): significantly decreased
ki67 (protein associated with proliferation ability) (NSCs [2]; 20 μM Aβ25-35 + PEP1, 48 hours): concentration-dependently increased
proliferation-associated proteins: P85a PI3K, pAKT (Ser 473), phosphorylated GSK3-3b (Ser 9), HSTF-1, cytoplasmic HMGB-1 (NSCs [2]; 20 μM Aβ25-35 + PEP1, 48 hours): recovered
HMGB1 expression in the cytoplasm (NSCs [2]; immunostaining, 20 μM Aβ25-35 + PEP1 co-treatment): concentration-dependently recovered
